# From article PMC5218480 (PLoS ONE, 2017)
# Tested on: MV-4-11 cells
# Assay: Gene expression microarray analysis (Affymetrix PrimeView) and GSEA
# Type: cell-based, human
# Parameters: RFU PODN (11730768_x_at) / Fold change /veh PODN (11730768_x_at) / RFU LINC00158 (11744669_a_at) / Fold change /veh LINC00158 (11744669_a_at) / RFU DUSP10 (11751237_a_at) / Fold change /veh DUSP10 (11751237_a_at) / RFU ID3 (11757404_x_at) / Fold change /veh ID3 (11757404_x_at) / RFU PLEKHG5 (11737974_s_at) / Fold change /veh PLEKHG5 (11737974_s_at) / RFU LRRC4B (11730491_at) / Fold change /veh LRRC4B (11730491_at) / RFU GIMAP4 (11747438_a_at) / Fold change /veh GIMAP4 (11747438_a_at) / RFU KRT8 (11758183_x_at) / Fold change /veh KRT8 (11758183_x_at) / RFU CNN1 (11734310_a_at) / Fold change /veh CNN1 (11734310_a_at) / RFU VPS37D (11726825_at) / Fold change /veh VPS37D (11726825_at) / RFU C10orf10 (11716522_x_at) / Fold change /veh C10orf10 (11716522_x_at) / RFU KIR2DL2 /// KIR2DL4 /// KIR2DL5A /// KIR2DL5B /// KIR2DS1 /// KIR2DS2 /// KIR2DS3 /// KIR2DS4 /// KIR3DL3 /// KIR3DL3 /// KIR3DS1 (11738374_at) / Fold change /veh KIR2DL2 /// KIR2DL4 /// KIR2DL5A /// KIR2DL5B /// KIR2DS1 /// KIR2DS2 /// KIR2DS3 /// KIR2DS4 /// KIR3DL3 /// KIR3DL3 /// KIR3DS1 (11738374_at) / RFU C1QL1 (11718748_at) / Fold change /veh C1QL1 (11718748_at) / RFU TMPRSS4 (11747572_a_at) / Fold change /veh TMPRSS4 (11747572_a_at) / RFU HAMP (11756126_x_at) / Fold change /veh HAMP (11756126_x_at) / RFU RNFT2 (11725882_a_at) / Fold change /veh RNFT2 (11725882_a_at) / RFU NR4A2 (11747474_a_at) / Fold change /veh NR4A2 (11747474_a_at) / RFU ABCC12 (11746883_a_at) / Fold change /veh ABCC12 (11746883_a_at) / RFU TMEM136 (11760407_x_at) / Fold change /veh TMEM136 (11760407_x_at) / RFU CLDN22 /// WWC2 (11732394_at) / Fold change /veh CLDN22 /// WWC2 (11732394_at) / RFU HLA-DPB1 (11760878_x_at) / Fold change /veh HLA-DPB1 (11760878_x_at) / RFU SPINT1 (11716480_a_at) / Fold change /veh SPINT1 (11716480_a_at) / RFU GAP43 (11754022_s_at) / Fold change /veh GAP43 (11754022_s_at) / RFU A4GNT (11735810_at) / Fold change /veh A4GNT (11735810_at) / RFU PRB3 (11715151_x_at) / Fold change /veh PRB3 (11715151_x_at) / RFU TUBB4B (11761932_at) / Fold change /veh TUBB4B (11761932_at) / RFU CAPN14 (11732068_a_at) / Fold change /veh CAPN14 (11732068_a_at) / RFU TMCC2 (11721928_a_at) / Fold change /veh TMCC2 (11721928_a_at) / RFU IRGQ (11745062_a_at) / Fold change /veh IRGQ (11745062_a_at) / RFU FAM174B (11720279_a_at) / Fold change /veh FAM174B (11720279_a_at) / RFU TMPRSS4 (11748680_a_at) / Fold change /veh TMPRSS4 (11748680_a_at) / RFU FAM212B (11763350_a_at) / Fold change /veh FAM212B (11763350_a_at) / RFU PLEKHG5 (11743358_a_at) / Fold change /veh PLEKHG5 (11743358_a_at) / RFU ZSCAN30 (11745921_a_at) / Fold change /veh ZSCAN30 (11745921_a_at) / RFU CMKLR1 (11741424_a_at) / Fold change /veh CMKLR1 (11741424_a_at) / RFU LOC101060620 /// MAPK8IP1 (11723275_at) / Fold change /veh LOC101060620 /// MAPK8IP1 (11723275_at) / RFU SPTSSB (11747773_x_at) / Fold change /veh SPTSSB (11747773_x_at) / RFU PRSS12 (11739890_at) / Fold change /veh PRSS12 (11739890_at) / RFU BIN1 (11741810_x_at) / Fold change /veh BIN1 (11741810_x_at) / RFU WNT11 (11732464_a_at) / Fold change /veh WNT11 (11732464_a_at) / RFU C10orf10 (11716521_a_at) / Fold change /veh C10orf10 (11716521_a_at) / RFU C5orf56 (11738089_at) / Fold change /veh C5orf56 (11738089_at) / RFU CYB561 (11721691_x_at) / Fold change /veh CYB561 (11721691_x_at) / RFU ANKRD19P (11752326_a_at) / Fold change /veh ANKRD19P (11752326_a_at) / RFU OR2T12 /// OR2T33 /// OR2T8 (11738714_s_at) / Fold change /veh OR2T12 /// OR2T33 /// OR2T8 (11738714_s_at) / RFU VCAN (11748164_a_at) / Fold change /veh VCAN (11748164_a_at) / RFU JSRP1 (11732532_at) / Fold change /veh JSRP1 (11732532_at) / RFU KRTAP10-11 (11738290_x_at) / Fold change /veh KRTAP10-11 (11738290_x_at) / RFU MYO3A (11730013_a_at) / Fold change /veh MYO3A (11730013_a_at) / RFU EBF3 (11725865_a_at) / Fold change /veh EBF3 (11725865_a_at) / RFU CAMK2N1 (11719241_x_at) / Fold change /veh CAMK2N1 (11719241_x_at) / RFU C5orf56 (11738088_a_at) / Fold change /veh C5orf56 (11738088_a_at) / RFU OLFML3 (11715873_a_at) / Fold change /veh OLFML3 (11715873_a_at) / RFU LOC100653217 /// NTM (11731650_a_at) / Fold change /veh LOC100653217 /// NTM (11731650_a_at) / RFU MAPK11 (11762145_a_at) / Fold change /veh MAPK11 (11762145_a_at) / RFU FIZ1 (11724087_x_at) / Fold change /veh FIZ1 (11724087_x_at) / RFU OASL (11726364_x_at) / Fold change /veh OASL (11726364_x_at) / RFU SOX15 (11748057_x_at) / Fold change /veh SOX15 (11748057_x_at) / RFU CD79A (11719716_a_at) / Fold change /veh CD79A (11719716_a_at) / RFU HIST1H1D (11736915_at) / Fold change /veh HIST1H1D (11736915_at) / RFU CASKIN2 (11723855_a_at) / Fold change /veh CASKIN2 (11723855_a_at) / RFU LOC730098 (11760151_x_at) / Fold change /veh LOC730098 (11760151_x_at) / RFU OR4N2 (11742367_at) / Fold change /veh OR4N2 (11742367_at) / RFU PRRT2 (11749266_a_at) / Fold change /veh PRRT2 (11749266_a_at) / RFU SNX32 (11753110_a_at) / Fold change /veh SNX32 (11753110_a_at) / RFU CDHR5 (11726645_a_at) / Fold change /veh CDHR5 (11726645_a_at) / RFU RCAN1 (11760418_a_at) / Fold change /veh RCAN1 (11760418_a_at) / RFU FAM167A (11723789_a_at) / Fold change /veh FAM167A (11723789_a_at) / RFU FAM26E (11764081_at) / Fold change /veh FAM26E (11764081_at) / RFU ISYNA1 (11749810_s_at) / Fold change /veh ISYNA1 (11749810_s_at) / RFU ACY1 (11761880_at) / Fold change /veh ACY1 (11761880_at) / RFU 11764098_at / Fold change /veh 11764098_at / RFU SAMD14 (11745864_x_at) / Fold change /veh SAMD14 (11745864_x_at) / RFU NPB (11741838_a_at) / Fold change /veh NPB (11741838_a_at) / RFU TMPRSS6 (11731388_a_at) / Fold change /veh TMPRSS6 (11731388_a_at) / RFU KRTAP10-2 (11738614_at) / Fold change /veh KRTAP10-2 (11738614_at) / RFU ARHGAP8 /// PRR5-ARHGAP8 (11727945_x_at) / Fold change /veh ARHGAP8 /// PRR5-ARHGAP8 (11727945_x_at) / RFU KRTAP5-7 /// NADSYN1 (11734609_at) / Fold change /veh KRTAP5-7 /// NADSYN1 (11734609_at) / RFU RASL12 (11751679_a_at) / Fold change /veh RASL12 (11751679_a_at) / RFU CDKN2B (11736163_a_at) / Fold change /veh CDKN2B (11736163_a_at) / RFU PRF1 (11729649_at) / Fold change /veh PRF1 (11729649_at) / RFU, ZNF638 /// ZNF638-IT1 / Fold change vs veh, ZNF638 /// ZNF638-IT1 / RFU, PANK3 / Fold change vs veh, PANK3 / RFU, SH3YL1 / Fold change vs veh, SH3YL1 / RFU, ZEB2 / Fold change vs veh, ZEB2 / RFU, NRIP1 / Fold change vs veh, NRIP1 / RFU, PTTG1IP / Fold change vs veh, PTTG1IP / RFU, CAPN2 / Fold change vs veh, CAPN2 / RFU, MED14 / Fold change vs veh, MED14 / RFU, SNORA58 / Fold change vs veh, SNORA58 / RFU, C1orf63 / Fold change vs veh, C1orf63 / RFU, LRRFIP1 / Fold change vs veh, LRRFIP1 / RFU, NDUFAF7 / Fold change vs veh, NDUFAF7 / RFU, SLC12A2 / Fold change vs veh, SLC12A2 / RFU, IBTK / Fold change vs veh, IBTK / RFU, ESF1 / Fold change vs veh, ESF1 / Fold change vs veh, TMEM50B / RFU, TAOK1 / Fold change vs veh, TAOK1 / RFU, ACBD3 / Fold change vs veh, ACBD3 / RFU, TMA16 / Fold change vs veh, TMA16 / RFU, RWDD3 / Fold change vs veh, RWDD3 / RFU, BCAT1 / Fold change vs veh, BCAT1 / RFU, EDEM3 / Fold change vs veh, EDEM3 / RFU, TMEM33 / Fold change vs veh, TMEM33 / RFU, WDR75 / Fold change vs veh, WDR75 / RFU, AHCTF1 / Fold change vs veh, AHCTF1 / RFU, TFRC / Fold change vs veh, TFRC / RFU, ZDHHC17 / Fold change vs veh, ZDHHC17 / RFU, NOM1 / Fold change vs veh, NOM1 / RFU, ARL8B / Fold change vs veh, ARL8B / RFU, ZBTB11 / Fold change vs veh, ZBTB11 / RFU, TAMM41 / Fold change vs veh, TAMM41 / RFU, KIAA1704 /// LOC100996395 / Fold change vs veh, KIAA1704 /// LOC100996395 / RFU, ING1 / Fold change vs veh, ING1 / RFU, TRMT61B / Fold change vs veh, TRMT61B / RFU, FUBP3 / Fold change vs veh, FUBP3 / RFU, TP53 / Fold change vs veh, TP53 / RFU, TNKS2 / Fold change vs veh, TNKS2 / RFU, ZFP14 / Fold change vs veh, ZFP14 / RFU, ACTR2 / Fold change vs veh, ACTR2 / RFU, PPP3R1 / Fold change vs veh, PPP3R1 / RFU, PIK3R1 / Fold change vs veh, PIK3R1 / RFU, HNRNPA1 / Fold change vs veh, HNRNPA1 / RFU, RNF170 / Fold change vs veh, RNF170 / RFU, ZNF28 / Fold change vs veh, ZNF28 / RFU, RNGTT / Fold change vs veh, RNGTT / RFU, OGT / Fold change vs veh, OGT / RFU, BRD1 / Fold change vs veh, BRD1 / RFU, MARS / Fold change vs veh, MARS / RFU, ZNF655 / Fold change vs veh, ZNF655 / RFU, FAHD1 / Fold change vs veh, FAHD1 / RFU, BDP1 / Fold change vs veh, BDP1 / RFU, LRRCC1 / Fold change vs veh, LRRCC1 / RFU, ARID1A / Fold change vs veh, ARID1A / RFU, ZNF146 / Fold change vs veh, ZNF146 / RFU, ZNF330 / Fold change vs veh, ZNF330 / RFU, GPN3 / Fold change vs veh, GPN3 / RFU, C9orf123 / Fold change vs veh, C9orf123 / RFU, N4BP2L2 / Fold change vs veh, N4BP2L2 / RFU, ARFIP1 / Fold change vs veh, ARFIP1 / RFU, FAM179B / Fold change vs veh, FAM179B / RFU, BCL10 / Fold change vs veh, BCL10 / RFU, UHRF1BP1L / Fold change vs veh, UHRF1BP1L / RFU, BET1 / Fold change vs veh, BET1 / RFU, CNOT2 / Fold change vs veh, CNOT2 / RFU, ZNF268 / Fold change vs veh, ZNF268 / Fold change vs veh, ZNF507 / RFU, DGCR2 / Fold change vs veh, DGCR2 / RFU, WDSUB1 / Fold change vs veh, WDSUB1 / Fold change vs veh, HSP90B1 /// MIR3652 / RFU, ADSS / Fold change vs veh, ADSS / RFU, GK / Fold change vs veh, GK / RFU, ZNF148 / Fold change vs veh, ZNF148 / RFU, TAF9 / Fold change vs veh, TAF9 / RFU, SLC1A5 / Fold change vs veh, SLC1A5 / RFU, SLMO2 / Fold change vs veh, SLMO2 / RFU, ABCC4 / Fold change vs veh, ABCC4 / RFU, LOC101060439 /// RAP1B / Fold change vs veh, LOC101060439 /// RAP1B / RFU, RFX7 / Fold change vs veh, RFX7 / RFU, GTPBP10 / Fold change vs veh, GTPBP10 / RFU, CNEP1R1 / Fold change vs veh, CNEP1R1 / RFU, BIVM-ERCC5 /// ERCC5 / Fold change vs veh, BIVM-ERCC5 /// ERCC5 / RFU, ILF3 / Fold change vs veh, ILF3 / RFU 11762660_at / Fold change /veh 11762660_at / RFU VCAN (11757783_s_at) / Fold change /veh VCAN (11757783_s_at) / RFU DDX43 (11728927_at) / Fold change /veh DDX43 (11728927_at) / RFU KRT8 (11758188_x_at) / Fold change /veh KRT8 (11758188_x_at) / RFU NKD1 (11759106_at) / Fold change /veh NKD1 (11759106_at) / RFU SRD5A1 (11742802_a_at) / Fold change /veh SRD5A1 (11742802_a_at) / RFU TPSAB1 /// TPSB2 (11721975_s_at) / Fold change /veh TPSAB1 /// TPSB2 (11721975_s_at) / RFU GSTM3 (11746129_a_at) / Fold change /veh GSTM3 (11746129_a_at) / RFU IL23R (11737362_x_at) / Fold change /veh IL23R (11737362_x_at) / RFU TMEM51 (11727254_a_at) / Fold change /veh TMEM51 (11727254_a_at) / RFU PIWIL2 (11732686_x_at) / Fold change /veh PIWIL2 (11732686_x_at) / RFU ORM1 (11744905_x_at) / Fold change /veh ORM1 (11744905_x_at) / RFU CCDC152 (11743942_at) / Fold change /veh CCDC152 (11743942_at) / RFU ECM1 (11717891_a_at) / Fold change /veh ECM1 (11717891_a_at) / RFU IL23R (11748794_a_at) / Fold change /veh IL23R (11748794_a_at) / RFU TNFAIP8L3 (11732012_x_at) / Fold change /veh TNFAIP8L3 (11732012_x_at) / RFU MBOAT4 (11741988_at) / Fold change /veh MBOAT4 (11741988_at) / RFU 11764193_at / Fold change /veh 11764193_at / RFU TMEM53 (11763286_at) / Fold change /veh TMEM53 (11763286_at) / RFU MAGEB2 (11727129_at) / Fold change /veh MAGEB2 (11727129_at) / RFU TMEM200A (11744735_a_at) / Fold change /veh TMEM200A (11744735_a_at) / RFU CCDC152 (11751479_a_at) / Fold change /veh CCDC152 (11751479_a_at) / RFU FAM211A (11726209_a_at) / Fold change /veh FAM211A (11726209_a_at) / RFU RGS16 (11746705_a_at) / Fold change /veh RGS16 (11746705_a_at) / RFU VCAN (11755009_s_at) / Fold change /veh VCAN (11755009_s_at) / RFU RHOB (11743442_s_at) / Fold change /veh RHOB (11743442_s_at) / RFU RGS16 (11720943_a_at) / Fold change /veh RGS16 (11720943_a_at) / RFU RGS16 (11720944_at) / Fold change /veh RGS16 (11720944_at) / RFU, VPS4B / Fold change vs veh, VPS4B / RFU, CREB1 / Fold change vs veh, CREB1 / RFU, DNAJC13 / Fold change vs veh, DNAJC13 / RFU, GNAQ / Fold change vs veh, GNAQ / RFU, CDK5R1 / Fold change vs veh, CDK5R1 / RFU, ZRANB3 / Fold change vs veh, ZRANB3 / RFU, CUL4A / Fold change vs veh, CUL4A / RFU, CCNY / Fold change vs veh, CCNY / RFU, UFL1 / Fold change vs veh, UFL1 / RFU, COG3 / Fold change vs veh, COG3 / RFU, DIAPH2 / Fold change vs veh, DIAPH2 / RFU, SKA2 / Fold change vs veh, SKA2 / RFU, AFF3 / Fold change vs veh, AFF3 / RFU, LMF1 / Fold change vs veh, LMF1 / RFU, IPO11 / Fold change vs veh, IPO11 / RFU, DFFB / Fold change vs veh, DFFB / RFU, FOXP1 / Fold change vs veh, FOXP1 / RFU, CARD8 / Fold change vs veh, CARD8 / RFU, STRN3 / Fold change vs veh, STRN3 / RFU, ADK / Fold change vs veh, ADK / RFU, RASSF2 / Fold change vs veh, RASSF2 / RFU, WIPF1 / Fold change vs veh, WIPF1 / RFU, LARP1B / Fold change vs veh, LARP1B / RFU, RASA1 / Fold change vs veh, RASA1 / RFU, RB1 / Fold change vs veh, RB1 / RFU, PPFIA1 / Fold change vs veh, PPFIA1 / RFU, MAT2A / Fold change vs veh, MAT2A / RFU, CCT5 / Fold change vs veh, CCT5 / RFU, WDR92 / Fold change vs veh, WDR92 / RFU, CUX1 / Fold change vs veh, CUX1 / RFU, TTC7A / Fold change vs veh, TTC7A / RFU, TMEM135 / Fold change vs veh, TMEM135 / RFU, DEPTOR / Fold change vs veh, DEPTOR / RFU, CPM / Fold change vs veh, CPM / RFU, DNAJB6 / Fold change vs veh, DNAJB6 / RFU, CACNA2D3 / Fold change vs veh, CACNA2D3 / RFU, DTX4 / Fold change vs veh, DTX4 / RFU, TFCP2 / Fold change vs veh, TFCP2 / RFU, GMCL1 /// GMCL1P1 / Fold change vs veh, GMCL1 /// GMCL1P1 / RFU, AEBP2 / Fold change vs veh, AEBP2 / RFU, SNHG1 /// SNORD22 /// SNORD25 /// SNORD26 /// SNORD27 /// SNORD28 /// SNORD29 /// SNORD31 / Fold change vs veh, SNHG1 /// SNORD22 /// SNORD25 /// SNORD26 /// SNORD27 /// SNORD28 /// SNORD29 /// SNORD31 / Fold change (Aza/veh), C12orf56 (ProbeSet 11735607_a_at) / Fold change (ACY-1035/veh), C12orf56 (ProbeSet 11735607_a_at) / Fold change (Aza/veh), FGFR1OP (ProbeSet 11751329_s_at) / Fold change (ACY-1035/veh), FGFR1OP (ProbeSet 11751329_s_at) / Fold change (Aza/veh), VPS36 (ProbeSet 11739960_a_at) / Fold change (ACY-1035/veh), VPS36 (ProbeSet 11739960_a_at) / RFU SYPL1 (11715823_x_at) / Fold change /veh SYPL1 (11715823_x_at) / RFU IGFBP7 (11715501_s_at) / Fold change /veh IGFBP7 (11715501_s_at) / RFU REEP3 (11722064_at) / Fold change /veh REEP3 (11722064_at) / RFU IGLL1 (11728026_x_at) / Fold change /veh IGLL1 (11728026_x_at): dose or concentration left out as unconfirmed
# Details: MV-4-11 cells, 48 hours
smiles,measurement,value
Nc1ccc(-c2cccs2)cc1NC(=O)c1ccc2c(c1)cc(C1CC1)n2CCN1CCOCC1 [ACY-1035],RFU TMEM136 (11760407_x_at),15.13 RFU
